Measurements from PubChem BioAssay AID2060499 (Molecular Pharmacology Branch, DTP, NCI, 2025).
Values joined by “and” are separate entries in the source; they are usually repeats but may differ in a detail not shown here. Equal values may be shown once.

Tested on: 777334-354-R2-J4-PDC tumor spheroids with HUVEC/MSC, viability
Assay: Anticancer human tumor 777334-354-R2-J4-PDC patient-derived pancreatic adenocarcinoma cell line growth inhibition [GQUAD]
Settings: for viability, T/C: stronger effect = lower value
Excerpt: DNA G-quadruplex Stabilizer Agents in Combinations in Complex Spheroids
A high-throughput screen of multi-cell type tumor spheroids was designed to identify active combinations of DNA G-quadruplex stabilizer agents and targeted small molecules. Complex spheroids include a stromal component modeled by human endothelial cells (HUVEC) and fibroblasts modeled by human mesenchymal stem cells (MSCs). The concentration ranges selected for each drug and investigational agent were based upon clinically achievable concentrations if the clinical Cmax of the agent was known.
Compounds. The drugs and investigational agents: pidnarulex (CX-5461; NSC782164), APTO-253 (NSC789042), BRACO-19 (NSC847499), peposertib (NSC802822), ceralasertib (NSC780249), elimusertib (NSC800525), camonsertib (NSC841442), AZD-1390 (NSC803789), olaparib (NSC753686), talazoparib (NSC767125), ART-558 (NSC835418), sotorasib (NSC818433), MRTX-1133 (NSC836407), SN-38 (NSC673596), topotecan (NSC609699), etoposide (NSC141540), doxorubicin (NSC123127), gemcitabine (NSC613327), 5-fluorouracil (NSC19893), paclitaxel (NSC125973), vemurafenib (NSC761431), panobinostat (NSC761190), R-306465 (JNJ-16241199; NSC773264), adavosertib (NSC754352), TP-3654 (NSC805149), carboplatin (NSC241240), KSQ-4279 (NSC840948), and staurosporine (NSC755774) were obtained from the National Cancer Institute (NCI) Developmental Therapeutics Program Chemical Repository (34). The FDA-approved anticancer drug set is available from the NCI Developmental Therapeutics Program. […] The stock solutions were prepared in dimethyl sulfoxide (DMSO, Sigma-Aldrich, St. Louis, MO, cat. D2650) at 800-fold the tested concentration and stored at -70 degrees C prior to their use. All drugs and investigational agents were tested over a range starting from a high concentration at or near the clinical Cmax and decreasing in half-log increments. If the clinical Cmax for an agent had not been determined, the highest concentration tested was 10 microM.
2.3 Cell Culture. All cells were maintained in an incubator at 37 degrees C and 5% CO2 with 95% humidity. The PDC lines were cultured according to standard operating procedures established by the NCI PDMR. All PDCs were thawed and cultured in Matrigel-coated flasks prepared with a working solution of 1X Ham's F-12 nutrient mix, without supplementation (Invitrogen, cat. 11765054), 100 U/mL penicillin-streptomycin (Invitrogen, cat. 15140122), and 2.5% Matrigel (Corning Inc., cat. 354248) for the first three passages. The 857933-349-R-J2-PDC line was cultured in 6C/Colon 1B media, which includes advanced DMEM/F-12 (Thermo Fisher Scientific, cat. 12634028), 10 mM HEPES (Thermo Fisher Scientific, cat. 15630080), 1X GlutaMAX supplement (Thermo Fisher Scientific, cat. 35050061), 0.1 mg/mL primocin (InvivoGen, cat. ant-pm-2), 10% defined fetal bovine serum, heat inactivated (HyClone Laboratories Inc., cat. SH30070.03HI), 50% L-WRN conditioned media (ATCC, cat. CRL-3276), 1.25 mM N-Acetyl-L-cysteine (Sigma-Aldrich, cat. A9165), 10 mM nicotinamide (Sigma-Aldrich, cat. N0636), 1X B-27 supplement (Thermo Fisher Scientific, cat. 17504044), 1X N-2 supplement (Thermo Fisher Scientific, cat. 17502048), 10 microM Y-27632 dihydrochloride (Tocris Bioscience, cat. 1254), and 50 ng/mL human EGF recombinant protein (Thermo Fisher Scientific, cat. PHG0311). The 485176-168-R4-J1-PDC line was cultured in Panc media, which includes all 6C/Colon 1B media components plus 100 ng/mL human FGF-10 (Thermo Fisher Scientific, cat. 100-26), 500 nM SB-431542 (Selleckchem, cat. S1067), and gastrin (Tocris, cat. 3006).
[…]
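Also: spheroids exposed to compounds for 7 days before readout.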

Structure (SMILES): CC(C)n1c(=O)n(C)c2cnc3cc(F)c(-c4ccc(OCCCN5CCCCC5)nc4)cc3c21
- viability, T/C (compound 0.0316 µM): 105% and 94.1% and 104%
- viability, T/C (compound 0.1 µM): 106% and 95% and 101%
- viability, T/C (compound 0.316 µM): 113% (2×) and 111%
- viability, T/C (compound 1 µM): 104% and 99.3% and 108%
- viability, T/C (compound 3.16 µM): 110% and 98.5% and 112%
- viability, T/C (compound 10 µM): 101% and 94.6% and 86.2%
- IC50 (curve of compound): > 10000 nM

Structure (SMILES): C#Cc1c(F)ccc2cc(O)cc(-c3ncc4c(N5CC6CCC(C5)N6)nc(OCC56CCCN5CC(F)C6)nc4c3F)c12 (configuration not stated)
- viability, T/C (compound 0.0316 µM): 45.7% and 46.4% and 48.8%
- viability, T/C (compound 0.1 µM): 38.8% and 41.4% and 41.3%
- viability, T/C (compound 0.316 µM): 35.2% and 32.8% and 38.1%
- viability, T/C (compound 1 µM): 30.4% and 28.5% and 34%
- viability, T/C (compound 3.16 µM): 26.4% and 36.1% and 29.3%
- viability, T/C (compound 10 µM): 20.9% and 19.6% and 22.6%
- IC50 (curve of compound): < 31.6 nM

Structure (SMILES): COc1ncnc(C2CC2)c1-c1ncc2cnn(Cc3ccc(-c4nc(C(F)(F)F)cn4C(C)C)cc3)c2n1
- viability, T/C (compound 0.0316 µM): 102% and 98.3% (2×)
- viability, T/C (compound 0.1 µM): 96.7% and 90.9% and 106%
- viability, T/C (compound 0.316 µM): 103% and 98.9% and 98.6%
- viability, T/C (compound 1 µM): 91.9% and 99.5% and 98.8%
- viability, T/C (compound 3.16 µM): 102% and 100% and 99.3%
- viability, T/C (compound 10 µM): 109% and 111% and 98.8%
- IC50 (curve of compound): > 10000 nM

Structure (SMILES): CCCS(=O)(=O)Nc1ccc(F)c(C(=O)c2c[nH]c3ncc(-c4ccc(Cl)cc4)cc23)c1F
- viability, T/C (compound 0.0316 µM): 107% and 111% and 99.5%
- viability, T/C (compound 0.1 µM): 109% and 105% and 92.8%
- viability, T/C (compound 0.316 µM): 114% and 127% and 108%
- viability, T/C (compound 1 µM): 110% and 120% and 102%
- viability, T/C (compound 3.16 µM): 98.7% and 115% and 111%
- viability, T/C (compound 10 µM): 37.2% and 34.2% and 33.4%
- IC50 (curve of compound): 7890 nM and 7980 nM and 7600 nM

Structure (SMILES): Cc1cnc(CNC(=O)c2c(=O)c3ccc(N4CCCN(C)CC4)nc3n3c2sc2ccccc23)cn1
- viability, T/C (compound 0.0316 µM): 95.7% [middle of 12 runs]
- viability, T/C (compound 0.1 µM): 88.5% [middle of 12 runs]
- viability, T/C (compound 0.316 µM): 85.2% [middle of 12 runs]
- viability, T/C (compound 1 µM): 76% [middle of 12 runs]
- viability, T/C (compound 3.16 µM): 68.6% [middle of 12 runs]
- viability, T/C (compound 10 µM): 54.9% [middle of 12 runs]
- IC50 (compound alone, run of 03/18/2024): > 10000 nM and 7430 nM

Structure (SMILES): COc1ccc([C@@H](O)c2cc(-c3ncnc4cc(N5CCOCC5)ccc34)c(F)cc2Cl)nn1 + Cc1cnc(CNC(=O)c2c(=O)c3ccc(N4CCCN(C)CC4)nc3n3c2sc2ccccc23)cn1
- IC50 (curve of first compound, second compound 0.0316 µM): 2990 nM
- IC50 (curve of first compound, second compound 0.1 µM): 1610 nM
- IC50 (curve of first compound, second compound 0.316 µM): 2100 nM
- IC50 (curve of first compound, second compound 1 µM): 1490 nM
- IC50 (curve of first compound, second compound 3.16 µM): 955 nM
- IC50 (curve of first compound, second compound 10 µM): 662 nM
- viability, T/C (second compound 0.0316 µM, first compound 0.0316 µM): 101%
- viability, T/C (second compound 0.0316 µM, first compound 0.1 µM): 94.4%
- viability, T/C (second compound 0.0316 µM, first compound 0.316 µM): 101%
- viability, T/C (second compound 0.0316 µM, first compound 1 µM): 72.1%
- viability, T/C (second compound 0.0316 µM, first compound 3.16 µM): 51%
- viability, T/C (second compound 0.0316 µM, first compound 10 µM): 24.6%
- viability, T/C (second compound 0.1 µM, first compound 0.0316 µM): 102%
- viability, T/C (second compound 0.1 µM, first compound 0.1 µM): 84.4%
- viability, T/C (second compound 0.1 µM, first compound 0.316 µM): 69.9%
- viability, T/C (second compound 0.1 µM, first compound 1 µM): 57.9%
- viability, T/C (second compound 0.1 µM, first compound 3.16 µM): 42.8%
- viability, T/C (second compound 0.1 µM, first compound 10 µM): 23.2%
- viability, T/C (second compound 0.316 µM, first compound 0.0316 µM): 93.9%
- viability, T/C (second compound 0.316 µM, first compound 0.1 µM): 89.3%
- viability, T/C (second compound 0.316 µM, first compound 0.316 µM): 75.8%
- viability, T/C (second compound 0.316 µM, first compound 1 µM): 64.8%
- viability, T/C (second compound 0.316 µM, first compound 3.16 µM): 42%
- viability, T/C (second compound 0.316 µM, first compound 10 µM): 20.1%
- viability, T/C (second compound 1 µM, first compound 0.0316 µM): 76.2%
- viability, T/C (second compound 1 µM, first compound 0.1 µM): 84.1%
- viability, T/C (second compound 1 µM, first compound 0.316 µM): 69.5%
- viability, T/C (second compound 1 µM, first compound 1 µM): 57.7%
- viability, T/C (second compound 1 µM, first compound 3.16 µM): 36.3%
- viability, T/C (second compound 1 µM, first compound 10 µM): 19.2%
- viability, T/C (second compound 3.16 µM, first compound 0.0316 µM): 61.1%
- viability, T/C (second compound 3.16 µM, first compound 0.1 µM): 64.9%
- viability, T/C (second compound 3.16 µM, first compound 0.316 µM): 63.1%
- viability, T/C (second compound 3.16 µM, first compound 1 µM): 45.6%
- viability, T/C (second compound 3.16 µM, first compound 3.16 µM): 34.9%
- viability, T/C (second compound 3.16 µM, first compound 10 µM): 17.1%
- viability, T/C (second compound 10 µM, first compound 0.0316 µM): 58.4%
- viability, T/C (second compound 10 µM, first compound 0.1 µM): 61%
- viability, T/C (second compound 10 µM, first compound 0.316 µM): 52.5%
- viability, T/C (second compound 10 µM, first compound 1 µM): 48.5%
- viability, T/C (second compound 10 µM, first compound 3.16 µM): 28.6%
- viability, T/C (second compound 10 µM, first compound 10 µM): 15.6%
